Measurements published in ChEMBL document CHEMBL1131893, “Antitumor agents 201. Cytotoxicity of harmine and beta-carboline analogs” (1999).
≈ marks a conversion by molar mass, not a printed value. Calls of active or inactive are those of the source. The rule behind the calls is not given here.

How the values were obtained:
1A9 = experiment: In vitro cytotoxic activity was determined against ovarian cancer (1A9) cell line; type: functional; conditions: Homo sapiens, read-out: ED50 (the source's name)
SAOS-2 = experiment: In vitro cytotoxic activity was determined against osteosarcoma (SaOS-2) cell line; type: functional; conditions: Homo sapiens, read-out: ED50 (the source's name)
KB [1] = experiment: In vitro cytotoxic activity was determined against epidermoid carcinoma of the nasopharynx (KB) cell line; type: functional; conditions: Homo sapiens, read-out: ED50 (the source's name)
CAKI-1 [2] = experiment: In vitro cytotoxic activity was determined against renal cancer (CAKI-1) cell line; type: functional; conditions: Homo sapiens, read-out: ED50 (the source's name)
SK-MEL-2 [3] = experiment: In vitro cytotoxic activity was determined against melanoma cancer (SK-MEL-2) cell line; type: functional; conditions: Homo sapiens, read-out: ED50 (the source's name)
MCF7 [4] = experiment: In vitro cytotoxic activity against MCF-7 (human breast cancer) cell line.; type: functional; conditions: read-out: ED50 (the source's name)
A549 = experiment: In vitro cytotoxic activity was determined against lung carcinoma (A549) cell line; type: functional; conditions: Homo sapiens, read-out: ED50 (the source's name)
KB [5] = experiment: In vitro cytotoxic activity was determined against drug resistant tumor cell line KB-7d (pleotrophic resistance including MRP multidrug resistant protein); type: functional; conditions: Homo sapiens, read-out: ED50 (the source's name)
KB [6] = experiment: In vitro cytotoxic activity was determined against drug resistant tumor cell line KB-VIN (expressing P-glycoprotein); type: functional; conditions: Homo sapiens, read-out: ED50 (the source's name)
HEL = experiment: In vitro cytotoxic activity was determined against embryonic lung fibroblast (HEL) cell line; type: functional; conditions: Homo sapiens, read-out: ED50 (the source's name)
KB [7] = experiment: In vitro cytotoxic activity was determined against drug resistant tumor cell line KB-CPT (pleotrophic mechanism including level of topoisomerase I); type: functional; conditions: Homo sapiens, read-out: ED50 (the source's name)
U-87 MG [8] = experiment: In vitro cytotoxic activity against U-87-MG (glioblastoma) cell line.; type: functional, U-87MG ATCC; conditions: Homo sapiens, read-out: ED50 (the source's name)
SK-MEL-2 [9] = experiment: In vitro cytotoxic activity was determined against melanoma cancer (SK-MEL-2) cell line; Not active; type: functional, cell-based; conditions: Homo sapiens
HCT-8 [10] = experiment: In vitro cytotoxic activity was determined against ileocecal carcinoma (HCT-8) cell line; Not active; type: functional, cell-based; conditions: Homo sapiens
HOS = experiment: In vitro cytotoxic activity was determined against osteosarcoma ( HOS) cell line; type: functional; conditions: Homo sapiens, read-out: ED50 (the source's name)
HCT-8 [11] = experiment: In vitro cytotoxic activity was determined against ileocecal carcinoma (HCT-8) cell line; type: functional; conditions: Homo sapiens, read-out: ED50 (the source's name)
U-87 MG [12] = experiment: In vitro cytotoxic activity was determined against glioblastoma (U-87-MG) cell line; Not active; type: functional, cell-based; conditions: Homo sapiens; U-87MG ATCC
KB [13] = experiment: In vitro cytotoxic activity was determined against epidermoid carcinoma of the nasopharynx (KB) cell line; Not active; type: functional, cell-based; conditions: Homo sapiens
CAKI-1 [14] = experiment: In vitro cytotoxic activity was determined against renal cancer (CAKI-1) cell line; Not active; type: functional, cell-based; conditions: Homo sapiens
MCF7 [15] = experiment: In vitro cytotoxic activity was determined against breast cancer (MCF-7) cell line; Not active; type: functional, cell-based; conditions: Homo sapiens

Compound | EC50 (1A9) [µg/mL] | EC50 (SAOS-2) [µg/mL] | EC50 (KB [1]) [µg/mL] | EC50 (CAKI-1 [2]) [µg/mL] | EC50 (SK-MEL-2 [3]) [µg/mL] | EC50 (MCF7 [4]) [µg/mL] | EC50 (A549) [µg/mL] | EC50 (KB [5]) [µg/mL] | EC50 (KB [6]) [µg/mL] | EC50 (HEL) [µg/mL] | EC50 (KB [7]) [µg/mL] | EC50 (U-87 MG [8]) [µg/mL] | ED50 (SK-MEL-2 [9]) | ED50 (HCT-8 [10]) | EC50 (HOS) [µg/mL] | EC50 (HCT-8 [11]) [µg/mL] | ED50 (U-87 MG [12]) | ED50 (KB [13]) | ED50 (CAKI-1 [14]) | ED50 (MCF7 [15])
Cc1nccc2c1[nH]c1cc(OC(=O)C34CCC(C)(C(=O)O3)C4(C)C)ccc12 (stereo not drawn) | 19.5 (≈ 51.5 µM) | > 20 | > 10 | > 20 | > 20 | 20 (≈ 52.9 µM) | 17 (≈ 44.9 µM) | – | – | – | – | – | – | – | – | – | – | – | – | –
CCCn1c2cc(OC)ccc2c2cc[n+](C)c(C)c21.[I-] | < 1.3 | – | 1.8 | 9.2 | 18 | > 20 | 4 | 35.5 | > 40 | 15 | 3 | > 20 | – | – | – | – | – | – | – | –
COc1ccc2c(c1)[nH]c1c(C)[n+](C)ccc12.[I-] | 7 | 8.2 | 7.2 | 8.9 | 8.4 | 6.2 | 0.9 | – | – | – | – | 6.2 | – | – | – | – | – | – | – | –
Cc1[nH]ccc2c1[nH]c1cc(=O)ccc12 [HARMOL] | 3.8 (≈ 19.2 µM) | – | 4.4 (≈ 22.2 µM) | 9.2 (≈ 46.4 µM) | – | 9.2 (≈ 46.4 µM) | 6.5 (≈ 32.8 µM) | – | – | – | – | 4.2 (≈ 21.2 µM) | – | – | – | – | – | – | – | –
CCCCCCCCC1NC(C(=O)O)Cc2c1[nH]c1cc(OC)ccc21 (stereo not drawn) | > 20 | – | > 20 | > 20 | – | – | > 20 | – | – | – | – | – | – | – | – | – | – | – | – | –
COc1ccc2c(c1)[nH]c1c(/C=C/c3ccc([N+](=O)[O-])cc3)nccc12 | 0.3 (≈ 0.869 µM) | 0.9 (≈ 2.61 µM) | 0.5 (≈ 1.45 µM) | 7 (≈ 20.3 µM) | 1 (≈ 2.9 µM) | 1.2 (≈ 3.47 µM) | 0.9 (≈ 2.61 µM) | – | – | – | – | 1.2 (≈ 3.47 µM) | – | – | – | – | – | – | – | –
Cc1nccc2c1[nH]c1cc(OC(C)C)ccc12 | 7.9 (≈ 32.9 µM) | – | 12.8 (≈ 53.3 µM) | 12.3 (≈ 51.2 µM) | – | 11.9 (≈ 49.5 µM) | 17 (≈ 70.7 µM) | – | – | – | – | 16.4 (≈ 68.2 µM) | inactive | inactive | 10.2 (≈ 42.4 µM) | – | – | – | – | –
CC(=O)Oc1ccc2c(c1)[nH]c1c(C)nccc12 | 4.5 (≈ 18.7 µM) | > 20 | 19.5 (≈ 81.2 µM) | 10.2 (≈ 42.5 µM) | 5 (≈ 20.8 µM) | 7.5 (≈ 31.2 µM) | 4.3 (≈ 17.9 µM) | – | – | – | – | – | – | – | – | – | – | – | – | –
Br.COc1ccc2c3c([nH]c2c1)C(C)=NCC3 | > 10 | 6.8 | 9.7 | > 10 | > 10 | 10 | 9.8 | – | – | – | – | 9.8 | – | – | – | – | – | – | – | –
COc1ccc2c(c1)[nH]c1c(C)nccc12 [HARMINE] | 1.6 (≈ 7.54 µM) | – | 2.2 (≈ 10.4 µM) | 1.9 (≈ 8.95 µM) | 18.5 (≈ 87.2 µM) | 10.5 (≈ 49.5 µM) | 2.4 (≈ 11.3 µM) | 3.7 (≈ 17.4 µM) | 2.5 (≈ 11.8 µM) | 1.9 (≈ 8.95 µM) | 4.3 (≈ 20.3 µM) | 14.5 (≈ 68.3 µM) | – | – | – | – | – | – | – | –
CCC[n+]1ccc2c([nH]c3cc(OC)ccc32)c1C.[I-] | 2 | – | 5 | 15 | – | – | 15 | – | – | 9.5 | – | – | – | – | – | – | – | – | – | –
COS(=O)(=O)O.Cc1nccc2c1[nH]c1ccccc12 | > 20 | – | 10.5 | > 20 | – | – | > 20 | – | – | > 20 | – | – | – | – | – | – | – | – | – | –
CCn1c2cc(OC)ccc2c2ccnc(C)c21 | 1.8 (≈ 7.49 µM) | – | 1.8 (≈ 7.49 µM) | 7.4 (≈ 30.8 µM) | – | 5.3 (≈ 22.1 µM) | 4.2 (≈ 17.5 µM) | – | – | – | – | 7.4 (≈ 30.8 µM) | – | – | – | > 20 | – | – | – | –
CCCCCCCCCCOc1ccc2c(c1)[nH]c1c(C)nccc12 | 1.4 (≈ 4.14 µM) | – | 2 (≈ 5.91 µM) | 5 (≈ 14.8 µM) | – | 3.8 (≈ 11.2 µM) | 1.2 (≈ 3.55 µM) | – | – | – | – | 5.4 (≈ 16 µM) | – | – | 6.7 (≈ 19.8 µM) | 4.1 (≈ 12.1 µM) | – | – | – | –
COc1ccc2c3ccnc(C)c3n(C)c2c1 | 1.8 (≈ 7.95 µM) | – | 2.2 (≈ 9.72 µM) | 5 (≈ 22.1 µM) | – | 4.3 (≈ 19 µM) | 4.2 (≈ 18.6 µM) | – | – | – | – | 7.8 (≈ 34.5 µM) | – | – | – | > 20 | – | – | – | –
CCCCn1c2cc(OC)ccc2c2ccnc(C)c21 | 2.2 (≈ 8.2 µM) | – | 7.8 (≈ 29.1 µM) | 11 (≈ 41 µM) | – | 9.5 (≈ 35.4 µM) | 6 (≈ 22.4 µM) | – | – | – | – | 12.3 (≈ 45.8 µM) | – | – | – | > 20 | – | – | – | –
CCCCCCOc1ccc2c(c1)[nH]c1c(C)nccc12 | 1.9 (≈ 6.73 µM) | – | 2.4 (≈ 8.5 µM) | 2.2 (≈ 7.79 µM) | > 5 | 3.1 (≈ 11 µM) | 4.4 (≈ 15.6 µM) | – | – | – | – | 4.2 (≈ 14.9 µM) | – | – | 2.5 (≈ 8.85 µM) | 3.8 (≈ 13.5 µM) | – | – | – | –
CCC(CC)C1NC(C(=O)O)Cc2c1[nH]c1cc(OC)ccc21 (stereo not drawn) | > 20 | – | 20 (≈ 63.2 µM) | > 20 | – | – | > 20 | – | – | > 20 | – | – | – | – | – | – | – | – | – | –
Cc1nccc2c1[nH]c1ccccc12 [HARMAN] | 6.1 (≈ 33.5 µM) | – | 8.9 (≈ 48.8 µM) | 8 (≈ 43.9 µM) | > 20 | 19 (≈ 104 µM) | 9.3 (≈ 51 µM) | 16.5 (≈ 90.5 µM) | 17.5 (≈ 96 µM) | 9.8 (≈ 53.8 µM) | 15 (≈ 82.3 µM) | 19 (≈ 104 µM) | – | – | – | – | – | – | – | –
COc1ccc2c3c([nH]c2c1)C(C)N(N=O)CC3 (stereo not drawn) | > 10 | > 10 | 4.7 (≈ 19.2 µM) | > 10 | > 10 | > 10 | > 10 | – | – | – | – | > 10 | – | – | – | – | – | – | – | –
COc1ccc2c3ccn(C)c(C)c-3nc2c1 | 7 (≈ 30.9 µM) | 9.6 (≈ 42.4 µM) | 6.4 (≈ 28.3 µM) | 7.8 (≈ 34.5 µM) | 10 (≈ 44.2 µM) | 5.6 (≈ 24.7 µM) | 2.7 (≈ 11.9 µM) | – | – | – | – | 9 (≈ 39.8 µM) | – | – | – | – | – | – | – | –
CCOc1ccc2c(c1)[nH]c1c(C)nccc12 | 8 (≈ 35.4 µM) | 20 (≈ 88.4 µM) | 10.2 (≈ 45.1 µM) | 9 (≈ 39.8 µM) | 9.5 (≈ 42 µM) | 5 (≈ 22.1 µM) | 5 (≈ 22.1 µM) | – | – | – | – | – | – | – | – | – | – | – | – | –
COc1cc2[nH]c3c(C)nccc3c2cc1Br | 2.3 (≈ 7.9 µM) | – | 7.9 (≈ 27.1 µM) | 6.7 (≈ 23 µM) | > 20 | 14.6 (≈ 50.1 µM) | 13.6 (≈ 46.7 µM) | – | – | – | – | 14 (≈ 48.1 µM) | – | – | 6.5 (≈ 22.3 µM) | 16 (≈ 55 µM) | – | – | – | –
Cc1cc(O)n2c(n1)nc1ccccc12 | > 10 | > 10 | > 10 | > 10 | > 10 | > 10 | > 10 | – | – | – | – | – | – | – | – | – | inactive | – | – | –
Br.COc1cc2[nH]c3c(C)nccc3c2cc1Br | 1.9 | 6.8 | 3.5 | 7.3 | 5 | 5.6 | 3.9 | – | – | – | – | 6.7 | – | – | – | – | – | – | – | –
CCCCCCCCCCCCCCCCOc1ccc2c(c1)[nH]c1c(C)nccc12 | 8 (≈ 18.9 µM) | – | – | – | – | – | 5 (≈ 11.8 µM) | – | – | – | – | – | – | inactive | 5 (≈ 11.8 µM) | – | – | inactive | inactive | inactive
